Experimental data as given in US20100144712A1 (priority 2007, published 2010).
Values after ≈ are worked out from the molar mass of the structure shown.

Assays:
Assay type in all cases: cell-based
[1] = system: Candida albican ATCC MYA-575; assay: In vitro antifungal activity (MIC80), Candida albican ATCC MYA-575; settings: Candida; Table 2, MYA 575; read-out: Minimal inhibitory concentration (MIC80)
Procedure: (§1) In vitro antifungal activities of the inventive antifungal compounds were evaluated using test strains including Candida albican (ATCC 90873, 204276, 62342, 64124, 64550, 96901, MYA-573, MYA-574, MYA-575, MYA-576, MYA-1003) and Aspergillus fumigatus (ATCC 16424). Test samples and positive control samples were prepared by dissolving the inventive compounds and comparative compounds, i.e., amphotericin B, fluconazole and itraconazole, in DMSO, respectively, and each successively diluted with medium to obtain test and positive control solutions having test compound concentrations of 0.125 μg/ml to a maximum concentration not generating turbidity. Minimal inhibitory concentration (MIC80) of each compound was determined as the lowest concentration of the test compounds required to reduce growth by 80% relative to a control strain not treated.
(§2) 1) Test strain: Candida albican ATCC 90873, 204276, 62342, 64124, 64550, 96901, MYA-573, MYA-574, MYA-575, MYA-576, MYA-1003, and Aspergillus fumigatus ATCC 16424 were commercially obtained from The American Type Culture Collection (ATCC) and subcultured in CHEMON Co. Ltd. (amphotericin B was commercially purchased from Sigma, and fluconazole and itraconazole were prepared according to methods described in British Patent No. 2,099,818; and U.S. Pat. No. 4,267,179, respectively).
(§3) 2) Medium and culture condition: Candida albican was cultured in Sabourad Dextrose Agar, YM Agar or Potato Dextrose Agar according to ATCC information at a temperature of 37° C., 35° C., 30° C. or 25° C. Aspergillus fumigatus was cultured in Malt Extract Agar or Potato Dextrose Agar at a temperature ranging from 24 to 27° C.
(§4) 3) Preparation of test samples: the inventive compounds and comparative compounds were each diluted with DMSO to obtain 1 to 2 ml of a test sample in a concentration of 100-folds of the determining maximum concentration (256 μg/ml).
(§5) The test samples were each successively diluted with RPMI 1640 to obtain test solutions having concentrations of […] in a 12×75 mm sterilized disposable culture tube. The final concentration of DMSO was adjusted to […] (v/v).
(§6) 5) Preparation of strain solution and inoculation
(§7) Candida albican strains were each subcultured in Sabourad Dextrose Agar, YM Agar or Potato Dextrose Agar medium at 35° C. for 2˜3 days. In the case of yeasts, a single colony was taken from prominent colonies and suspended in 0.85% sterile physiological saline solution and the turbidity of the suspension was adjusted to 80˜82% at 530 nm, and then diluted 50-fold with RPMI 1640 medium to 1.0×10^3˜5.0×10^3 CFU/ml. The turbidity of fungi was adjusted to 80˜82% and the suspension was diluted 50-fold to […]. Aspergillus fumigatus strains were subcultured in Malt Extract Agar for 7˜10 days, and a single colony was taken from prominent colonies and suspended in 0.85% sterile physiological saline solution and the suspension was adjusted to 0.108 at 530 nm, and then diluted 1000-fold with RPMI 1640 medium to 0.4×10^2˜5×10^4 CFU/ml. The turbidity of fungi was adjusted to 80˜82% and the suspension was diluted 50-fold to 0.4102˜0.5104 CFU/ml.
(§8) The strain solutions thus obtained were each seeded into a sterilized 96-well microplate, 0.1 ml of each test solution were added thereto, and […] of alamarblue was treated to each well (Biosource, #DAL1100). This procedure was repeated 2 times.
(§9) Minimal inhibitory concentration (MIC80) of each compound was determined as the lowest concentration of the test compounds required to reduce growth by 80% relative to a control strain not treated.

[2] = system: Candida albican ATCC MYA-574; assay: In vitro antifungal activity (MIC80), Candida albican ATCC MYA-574; settings: Candida; Table 2, MYA 574; read-out: Minimal inhibitory concentration (MIC80)
Procedure: as §1, §2, §3, §4, §5, §6, §7, §8, §9

[3] = system: Candida albican ATCC MYA-576; assay: In vitro antifungal activity (MIC80), Candida albican ATCC MYA-576; settings: Candida; Table 2, MYA 576; read-out: Minimal inhibitory concentration (MIC80)
Procedure: as §1, §2, §3, §4, §5, §6, §7, §8, §9

[4] = system: Candida albican ATCC 96901; assay: In vitro antifungal activity (MIC80), Candida albican ATCC 96901; settings: Candida, ATCC96901; Table 2, ATCC 96901; read-out: Minimal inhibitory concentration (MIC80)
Procedure: as §1, §2, §3, §4, §5, §6, §7, §8, §9

[5] = system: Candida albican ATCC 64550; assay: In vitro antifungal activity (MIC80), Candida albican ATCC 64550; settings: Candida, ATCC64550; Table 2, 64550; read-out: Minimal inhibitory concentration (MIC80)
Procedure: as §1, §2, §3, §4, §5, §6, §7, §8, §9

[6] = system: Candida albican ATCC MYA-573; assay: In vitro antifungal activity (MIC80), Candida albican ATCC MYA-573; settings: Candida; Table 2, MYA 573; read-out: Minimal inhibitory concentration (MIC80)
Procedure: as §1, §2, §3, §4, §5, §6, §7, §8, §9

[7] = system: Candida albican ATCC 90873; assay: In vitro antifungal activity (MIC80), Candida albican ATCC 90873; settings: Candida, ATCC90873; Table 2, ATCC 90873; read-out: Minimal inhibitory concentration (MIC80)
Procedure: as §1, §2, §3, §4, §5, §6, §7, §8, §9

[8] = system: Candida albican ATCC 62342; assay: In vitro antifungal activity (MIC80), Candida albican ATCC 62342; settings: Candida, ATCC62342; Table 2, 62342; read-out: Minimal inhibitory concentration (MIC80)
Procedure: as §1, §2, §3, §4, §5, §6, §7, §8, §9

[9] = system: Candida albican ATCC 64124; assay: In vitro antifungal activity (MIC80), Candida albican ATCC 64124; settings: Candida, ATCC64124; Table 2, 64124; read-out: Minimal inhibitory concentration (MIC80)
Procedure: as §1, §2, §3, §4, §5, §6, §7, §8, §9

[10] = system: Candida albican ATCC MYA-1003; assay: In vitro antifungal activity (MIC80), Candida albican ATCC MYA-1003; settings: Candida; Table 2, MYA 1003; read-out: Minimal inhibitory concentration (MIC80)
Procedure: as §1, §2, §3, §4, §5, §6, §7, §8, §9

Row | Structure (SMILES) | MIC80 [1] [µg/mL] | MIC80 [2] [µg/mL] | MIC80 [3] [µg/mL] | MIC80 [4] [µg/mL] | MIC80 [5] [µg/mL] | MIC80 [6] [µg/mL] | MIC80 [7] [µg/mL] | MIC80 [8] [µg/mL] | MIC80 [9] [µg/mL] | MIC80 [10] [µg/mL]
1 | C[C@@H](N1CCN(c2cccc(N(C)CCCN3CCOCC3)n2)CC1)[C@](O)(Cn1cncn1)c1ccc(F)cc1F [Example 27, (2R,3R)-2-(2,4-difluorophenyl)-3-(4-(6-(methyl(3-morpholinopropyl)amino)pyridin-2-yl)piperazin-1-yl)-1-(1H-1,2,4-triazol-1-yl)butan-2-ol] | 1 (≈ 1.75 µM) | 8 (≈ 14 µM) | 0.5 (≈ 0.876 µM) | 16 (≈ 28 µM) | 4 (≈ 7.01 µM) | 4 (≈ 7.01 µM) | 0.25 (≈ 0.438 µM) | 2 (≈ 3.5 µM) | 32 (≈ 56.1 µM) | 64 (≈ 112 µM)
2 | C[C@@H](N1CCN(c2cccc(OCCN3CCOCC3)n2)CC1)[C@](O)(Cn1cncn1)c1ccc(F)cc1F [Example 26, (2R,3R)-2-(2,4-difluorophenyl)-3-(4-(6-(2-morpholinoethoxy)pyridin-2-yl)piperazin-1-yl)-1-(1H-1,2,4-triazol-1-yl)butan-2-ol] | 0.5 (≈ 0.92 µM) | 16 (≈ 29.4 µM) | 0.5 (≈ 0.92 µM) | > 128 | 8 (≈ 14.7 µM) | 8 (≈ 14.7 µM) | 0.25 (≈ 0.46 µM) | 4 (≈ 7.36 µM) | > 128 | > 128
3 | C[C@@H](N1CCN(c2ccc(OCc3cccs3)nc2)CC1)[C@](O)(Cn1cncn1)c1ccc(F)cc1F [Example 35, (2R,3R)-2-(2,4-difluorophenyl)-3-(4-(6-(thiophen-2-ylmethoxy)pyridin-3-yl)piperazin-1-yl)-1-(1H-1,2,4-triazol-1-yl)butan-2-ol] | 0.125 (≈ 0.237 µM) | 1 (≈ 1.9 µM) | 0.125 (≈ 0.237 µM) | > 128 | 1 (≈ 1.9 µM) | 0.5 (≈ 0.949 µM) | 0.125 (≈ 0.237 µM) | 0.5 (≈ 0.949 µM) | 8 (≈ 15.2 µM) | > 128
4 | C[C@@H](N1CCN(c2nc3ccc(N4CCCCC4)cc3s2)CC1)[C@](O)(Cn1cncn1)c1ccc(F)cc1F [Example 10, (2R,3R)-2-(2,4-difluorophenyl)-3-(4-(6-(piperidin-1-yl)benzothiazol-2-yl)piperazin-1-yl)-1-(1H-1,2,4-triazol-1-yl)butan-2-ol] | 0.125 (≈ 0.226 µM) | 0.5 (≈ 0.903 µM) | 0.125 (≈ 0.226 µM) | 4 (≈ 7.22 µM) | 0.5 (≈ 0.903 µM) | 0.5 (≈ 0.903 µM) | 0.125 (≈ 0.226 µM) | 0.125 (≈ 0.226 µM) | 4 (≈ 7.22 µM) | > 128
5 | CC(N1CCCN(c2ccc(C#N)nc2)CC1)C(O)(Cn1cncn1)c1ccc(F)cc1F (stereo not drawn) [Example 39] | 0.125 (≈ 0.276 µM) | 2 (≈ 4.41 µM) | 0.125 (≈ 0.276 µM) | 32 (≈ 70.6 µM) | 2 (≈ 4.41 µM) | 1 (≈ 2.21 µM) | 0.125 (≈ 0.276 µM) | 4 (≈ 8.82 µM) | 128 (≈ 282 µM) | 16 (≈ 35.3 µM)
6 | CC(N1CCN(c2ccc(N(C)CCc3cccs3)nc2)CC1)C(O)(Cn1cncn1)c1ccc(F)cc1F (stereo not drawn) [Example 37] | 0.5 (≈ 0.903 µM) | 2 (≈ 3.61 µM) | 0.5 (≈ 0.903 µM) | > 128 | 4 (≈ 7.22 µM) | 1 (≈ 1.81 µM) | 0.125 (≈ 0.226 µM) | 1 (≈ 1.81 µM) | 32 (≈ 57.8 µM) | > 128
7 | C[C@@H](N1CCN(c2cccc(OCc3ccccc3)n2)CC1)[C@](O)(Cn1cncn1)c1ccc(F)cc1F [Example 20, (2R,3R)-3-(4-(6-(benzyloxy)pyridin-2-yl)piperazin-1-yl)-2-(2,4-difluorophenyl)-1-(1H-1,2,4-triazol-1-yl)butan-2-ol] | 0.25 (≈ 0.48 µM) | 1 (≈ 1.92 µM) | 0.25 (≈ 0.48 µM) | 2 (≈ 3.84 µM) | 1 (≈ 1.92 µM) | 0.5 (≈ 0.96 µM) | 0.125 (≈ 0.24 µM) | 1 (≈ 1.92 µM) | 8 (≈ 15.4 µM) | > 128
8 | C[C@@H](N1CCN(c2ccc(OCCN3CCOCC3)nc2)CC1)[C@](O)(Cn1cncn1)c1ccc(F)cc1F [Example 34, (2R,3R)-2-(2,4-difluorophenyl)-3-(4-(6-(2-morpholinoethoxy)pyridin-3-yl)piperazin-1-yl)-1-(1H-1,2,4-triazol-1-yl)butan-2-ol] | 0.125 (≈ 0.23 µM) | 2 (≈ 3.68 µM) | 0.125 (≈ 0.23 µM) | 32 (≈ 58.9 µM) | 2 (≈ 3.68 µM) | 2 (≈ 3.68 µM) | 0.125 (≈ 0.23 µM) | 0.5 (≈ 0.92 µM) | 32 (≈ 58.9 µM) | 128 (≈ 235 µM)
9 | C[C@@H](N1CCN(Cc2ccncc2)CC1)[C@](O)(Cn1cncn1)c1ccc(F)cc1F [Example 42, (2R,3R)-2-(2,4-difluorophenyl)-3-(4-((pyridin-4-yl)methyl)piperazin-1-yl)-1-(1H-1,2,4-triazol-1-yl)butan-2-ol] | 0.5 (≈ 1.17 µM) | 4 (≈ 9.34 µM) | 0.125 (≈ 0.292 µM) | 64 (≈ 149 µM) | 4 (≈ 9.34 µM) | 1 (≈ 2.33 µM) | 0.125 (≈ 0.292 µM) | 0.5 (≈ 1.17 µM) | 64 (≈ 149 µM) | 128 (≈ 299 µM)
